Experiments:
Type in all cases: cell-based
Settings in all cases: HEK-293T; 1 μM inhibitor, HEK293T cells
NEK11 = NEK11 (Homo sapiens, UniProt Q8NG66)
Experimental: (§1) For plate preparation, a transfection mix was prepared in white 384-well small-volume plates (Greiner, cat. no. 784075) by preplating 3 μL of 20 μL/mL FuGene HD (Promega, cat. no. E2311), diluted in an Opti-MEM medium (Gibco, cat. no. 11058-021). One μL of DNA from both DNA vector source plates of the K192 kit was added using an Echo 550 acoustic dispenser (Beckman Coulter). The mix was incubated for 30 min, and 6 μL of HEK293T cells in an Opti-MEM medium was added. The proteins were allowed to express for 20 h. After expression, Tracer K10 was added using the concentrations recommended in the K192 technical manual and a 1 μM inhibitor was added to every second well. […] Five μL of substrate solution was added to every well, and filtered luminescence was measured on a PHERAstar plate reader (BMG Labtech) equipped with a luminescence filter pair (450 nm BP filter (donor) and a 610 nm LP filter (acceptor)). For every kinase, occupancy was calculated and plotted using GraphPad Prism 10 (Table S5).

RIPK1 = molecular target: T1, RIPK1 (Homo sapiens, UniProt Q13546)
T1 construct: full-length LIMK1/2, RIPK1, BTK, and LRRK2 cloned in a frame in a NanoLuc-vector (Promega); host or cells: HEK293T
T1 sequence (Q13546 1-671): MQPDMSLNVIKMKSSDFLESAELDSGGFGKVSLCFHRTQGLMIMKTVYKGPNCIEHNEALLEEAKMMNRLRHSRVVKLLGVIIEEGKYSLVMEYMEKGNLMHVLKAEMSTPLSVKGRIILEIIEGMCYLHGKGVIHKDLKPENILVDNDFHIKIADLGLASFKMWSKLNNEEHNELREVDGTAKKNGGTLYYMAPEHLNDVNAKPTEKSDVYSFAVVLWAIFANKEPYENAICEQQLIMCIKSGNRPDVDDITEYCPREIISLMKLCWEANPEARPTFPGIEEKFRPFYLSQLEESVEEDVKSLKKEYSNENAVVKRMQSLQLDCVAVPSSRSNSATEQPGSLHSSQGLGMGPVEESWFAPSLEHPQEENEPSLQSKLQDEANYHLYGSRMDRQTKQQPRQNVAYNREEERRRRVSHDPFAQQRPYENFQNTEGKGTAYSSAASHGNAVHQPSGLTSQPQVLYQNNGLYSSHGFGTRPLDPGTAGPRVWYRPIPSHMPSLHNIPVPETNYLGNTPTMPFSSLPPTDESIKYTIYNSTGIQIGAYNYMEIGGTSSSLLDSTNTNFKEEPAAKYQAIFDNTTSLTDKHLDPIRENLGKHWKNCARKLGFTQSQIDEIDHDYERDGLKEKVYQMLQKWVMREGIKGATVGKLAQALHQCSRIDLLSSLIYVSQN
Experimental: as §1

RPS6KA6 = RPS6KA6 (Homo sapiens, UniProt Q9UK32)
Sequence of RPS6KA6 (Q9UK32 whole entry): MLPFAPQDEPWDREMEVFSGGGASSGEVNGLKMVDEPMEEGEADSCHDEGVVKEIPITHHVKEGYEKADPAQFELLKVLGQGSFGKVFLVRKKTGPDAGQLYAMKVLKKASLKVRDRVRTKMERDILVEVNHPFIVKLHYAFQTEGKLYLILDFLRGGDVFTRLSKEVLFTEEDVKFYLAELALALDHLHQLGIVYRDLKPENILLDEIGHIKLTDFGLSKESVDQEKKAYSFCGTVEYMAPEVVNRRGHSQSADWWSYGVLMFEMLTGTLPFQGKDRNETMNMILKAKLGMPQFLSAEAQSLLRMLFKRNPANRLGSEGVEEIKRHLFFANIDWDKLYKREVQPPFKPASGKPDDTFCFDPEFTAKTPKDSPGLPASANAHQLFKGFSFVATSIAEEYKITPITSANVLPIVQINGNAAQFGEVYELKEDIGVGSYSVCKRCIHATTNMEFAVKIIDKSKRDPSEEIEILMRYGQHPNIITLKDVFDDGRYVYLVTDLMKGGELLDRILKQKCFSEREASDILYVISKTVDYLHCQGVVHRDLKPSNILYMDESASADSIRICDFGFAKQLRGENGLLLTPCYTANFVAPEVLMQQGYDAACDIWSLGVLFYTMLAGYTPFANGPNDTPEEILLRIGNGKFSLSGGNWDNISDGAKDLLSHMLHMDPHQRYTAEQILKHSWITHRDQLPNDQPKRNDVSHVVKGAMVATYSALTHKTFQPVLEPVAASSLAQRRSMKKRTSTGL
Experimental: as §1

STK3 = STK3 (Homo sapiens, UniProt Q13188)
Experimental: as §1

NUAK1 = NUAK1 (Homo sapiens, UniProt O60285)
Experimental: as §1

PRKACB = PRKACB (Homo sapiens, UniProt P22694)
Experimental: as §1

PLK3 = PLK3 (Homo sapiens, UniProt Q9H4B4)
Sequence of PLK3 (Q9H4B4 whole entry): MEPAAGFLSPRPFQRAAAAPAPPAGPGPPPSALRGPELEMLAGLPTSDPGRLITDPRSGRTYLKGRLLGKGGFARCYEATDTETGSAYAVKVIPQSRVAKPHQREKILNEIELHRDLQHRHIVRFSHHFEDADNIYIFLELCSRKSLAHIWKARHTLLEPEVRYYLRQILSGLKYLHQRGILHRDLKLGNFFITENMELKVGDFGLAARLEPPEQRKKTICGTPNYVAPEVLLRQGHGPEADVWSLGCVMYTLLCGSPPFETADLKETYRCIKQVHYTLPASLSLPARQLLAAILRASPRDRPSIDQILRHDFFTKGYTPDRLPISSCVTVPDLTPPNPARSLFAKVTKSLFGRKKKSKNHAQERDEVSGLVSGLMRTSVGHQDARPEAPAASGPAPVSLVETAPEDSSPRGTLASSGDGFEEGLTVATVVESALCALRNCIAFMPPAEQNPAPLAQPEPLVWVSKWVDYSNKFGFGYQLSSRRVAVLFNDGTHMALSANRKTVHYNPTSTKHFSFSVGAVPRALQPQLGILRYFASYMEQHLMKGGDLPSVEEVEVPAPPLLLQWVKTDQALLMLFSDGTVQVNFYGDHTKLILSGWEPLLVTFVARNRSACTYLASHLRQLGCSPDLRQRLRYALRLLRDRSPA
Experimental: as §1

TBK1 = TBK1 (Homo sapiens, UniProt Q9UHD2)
Sequence of TBK1 (Q9UHD2 whole entry): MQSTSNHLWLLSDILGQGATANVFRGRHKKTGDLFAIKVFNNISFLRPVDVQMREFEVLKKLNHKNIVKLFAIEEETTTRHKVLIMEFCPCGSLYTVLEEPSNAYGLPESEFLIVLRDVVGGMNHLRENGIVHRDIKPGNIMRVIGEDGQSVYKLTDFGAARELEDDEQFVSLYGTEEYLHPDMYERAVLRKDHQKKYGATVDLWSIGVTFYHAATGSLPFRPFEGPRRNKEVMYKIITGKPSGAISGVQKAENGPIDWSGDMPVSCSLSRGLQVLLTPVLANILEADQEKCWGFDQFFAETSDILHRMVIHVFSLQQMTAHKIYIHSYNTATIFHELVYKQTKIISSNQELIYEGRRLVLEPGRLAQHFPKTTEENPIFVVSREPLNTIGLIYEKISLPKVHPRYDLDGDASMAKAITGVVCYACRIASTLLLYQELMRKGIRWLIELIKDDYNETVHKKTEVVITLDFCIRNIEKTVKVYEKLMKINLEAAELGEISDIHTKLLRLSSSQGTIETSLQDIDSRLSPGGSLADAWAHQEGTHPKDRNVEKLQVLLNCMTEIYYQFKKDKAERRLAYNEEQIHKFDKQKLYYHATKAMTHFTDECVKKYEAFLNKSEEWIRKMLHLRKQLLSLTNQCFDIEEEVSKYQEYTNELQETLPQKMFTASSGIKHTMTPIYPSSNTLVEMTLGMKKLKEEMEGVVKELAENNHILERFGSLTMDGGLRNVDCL
Experimental: as §1

SNF1LK2 = SNF1LK2 (Homo sapiens, UniProt Q9H0K1)
Experimental: as §1

ULK3 = ULK3 (Homo sapiens, UniProt Q6PHR2)
Experimental: as §1

RIPK2 = RIPK2 (Homo sapiens, UniProt O43353)
Experimental: as §1

PRKAA2 = PRKAA2 (Homo sapiens, UniProt P54646)
Experimental: as §1

BMP2K = BMP2K (Homo sapiens, UniProt Q9NSY1)
Experimental: as §1

NEK2 = NEK2 (Homo sapiens, UniProt P51955)
Experimental: as §1

CSNK1D = CSNK1D (Homo sapiens, UniProt P48730)
Sequence of CSNK1D (P48730 whole entry): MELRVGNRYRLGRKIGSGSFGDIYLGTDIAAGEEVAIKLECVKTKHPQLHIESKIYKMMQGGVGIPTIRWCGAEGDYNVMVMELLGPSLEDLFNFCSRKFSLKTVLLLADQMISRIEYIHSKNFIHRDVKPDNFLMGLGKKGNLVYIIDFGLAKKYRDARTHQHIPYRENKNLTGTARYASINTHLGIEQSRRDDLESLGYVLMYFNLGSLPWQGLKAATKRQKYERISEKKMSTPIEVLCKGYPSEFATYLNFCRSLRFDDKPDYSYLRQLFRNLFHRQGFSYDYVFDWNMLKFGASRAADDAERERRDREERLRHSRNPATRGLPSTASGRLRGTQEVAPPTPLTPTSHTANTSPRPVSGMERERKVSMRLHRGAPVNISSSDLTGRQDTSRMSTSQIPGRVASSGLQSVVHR
Experimental: as §1

TNK2(iso1) = TNK2(iso1) (Homo sapiens, UniProt Q07912)
Experimental: as §1

PRKACA = PRKACA (Homo sapiens, UniProt P17612)
Experimental: as §1

PLK2 = PLK2 (Homo sapiens, UniProt Q9NYY3)
Sequence of PLK2 (Q9NYY3 whole entry): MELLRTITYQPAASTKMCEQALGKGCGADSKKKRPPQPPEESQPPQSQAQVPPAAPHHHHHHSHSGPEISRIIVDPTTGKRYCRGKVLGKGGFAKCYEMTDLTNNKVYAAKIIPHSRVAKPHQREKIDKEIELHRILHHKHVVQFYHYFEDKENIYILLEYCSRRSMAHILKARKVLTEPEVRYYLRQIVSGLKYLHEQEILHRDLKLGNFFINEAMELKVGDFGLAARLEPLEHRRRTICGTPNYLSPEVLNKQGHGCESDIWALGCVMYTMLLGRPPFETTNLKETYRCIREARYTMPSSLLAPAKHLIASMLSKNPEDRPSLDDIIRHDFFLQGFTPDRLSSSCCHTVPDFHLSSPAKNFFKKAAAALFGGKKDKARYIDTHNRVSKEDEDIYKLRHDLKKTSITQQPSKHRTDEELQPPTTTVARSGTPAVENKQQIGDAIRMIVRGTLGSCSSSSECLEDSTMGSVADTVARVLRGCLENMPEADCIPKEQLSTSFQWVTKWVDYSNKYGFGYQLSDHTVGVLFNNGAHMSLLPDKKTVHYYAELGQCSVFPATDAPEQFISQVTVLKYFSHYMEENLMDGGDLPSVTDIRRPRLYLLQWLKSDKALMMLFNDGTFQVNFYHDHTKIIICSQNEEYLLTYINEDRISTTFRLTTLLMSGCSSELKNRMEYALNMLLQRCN
Experimental: as §1

PHKG1 = PHKG1 (Homo sapiens, UniProt Q16816)
Experimental: as §1

MAP3K9 = MAP3K9 (Homo sapiens, UniProt P80192)
Experimental: as §1

MAP4K3 = MAP4K3 (Homo sapiens, UniProt Q8IVH8)
Experimental: as §1

MAPK14 = MAPK14 (Homo sapiens, UniProt Q16539)
Experimental: as §1

FER = FER (Homo sapiens, UniProt P16591)
Sequence of FER (P16591 whole entry): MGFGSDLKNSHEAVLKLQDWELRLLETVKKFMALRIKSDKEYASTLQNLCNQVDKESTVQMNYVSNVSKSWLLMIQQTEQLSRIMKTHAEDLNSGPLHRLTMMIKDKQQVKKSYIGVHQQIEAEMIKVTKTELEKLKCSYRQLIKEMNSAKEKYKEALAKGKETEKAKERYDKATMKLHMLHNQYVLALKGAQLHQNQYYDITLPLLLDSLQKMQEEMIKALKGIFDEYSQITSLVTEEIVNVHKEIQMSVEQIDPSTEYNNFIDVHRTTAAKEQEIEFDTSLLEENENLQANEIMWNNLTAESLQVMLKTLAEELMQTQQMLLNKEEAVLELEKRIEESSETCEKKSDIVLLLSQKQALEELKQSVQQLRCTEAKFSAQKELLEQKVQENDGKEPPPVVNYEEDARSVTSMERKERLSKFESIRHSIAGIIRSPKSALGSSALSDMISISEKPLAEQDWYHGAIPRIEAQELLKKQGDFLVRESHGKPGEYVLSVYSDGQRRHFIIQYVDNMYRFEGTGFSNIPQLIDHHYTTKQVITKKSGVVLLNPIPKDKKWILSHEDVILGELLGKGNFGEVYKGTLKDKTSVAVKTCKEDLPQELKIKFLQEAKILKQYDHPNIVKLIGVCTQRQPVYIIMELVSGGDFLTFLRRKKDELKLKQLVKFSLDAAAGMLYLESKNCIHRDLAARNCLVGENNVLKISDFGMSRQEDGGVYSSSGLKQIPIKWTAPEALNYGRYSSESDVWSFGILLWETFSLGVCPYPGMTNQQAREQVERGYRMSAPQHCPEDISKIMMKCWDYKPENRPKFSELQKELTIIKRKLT
Experimental: as §1

STK17B = STK17B (Homo sapiens, UniProt O94768)
Experimental: as §1

RON = RON (Homo sapiens, UniProt Q04912)
Experimental: as §1

BTK = molecular target: T2, BTK (Homo sapiens, UniProt Q06187)
T2 construct: full-length LIMK1/2, RIPK1, BTK, and LRRK2 cloned in a frame in a NanoLuc-vector (Promega); host or cells: HEK293T
T2 sequence (Q06187 whole entry): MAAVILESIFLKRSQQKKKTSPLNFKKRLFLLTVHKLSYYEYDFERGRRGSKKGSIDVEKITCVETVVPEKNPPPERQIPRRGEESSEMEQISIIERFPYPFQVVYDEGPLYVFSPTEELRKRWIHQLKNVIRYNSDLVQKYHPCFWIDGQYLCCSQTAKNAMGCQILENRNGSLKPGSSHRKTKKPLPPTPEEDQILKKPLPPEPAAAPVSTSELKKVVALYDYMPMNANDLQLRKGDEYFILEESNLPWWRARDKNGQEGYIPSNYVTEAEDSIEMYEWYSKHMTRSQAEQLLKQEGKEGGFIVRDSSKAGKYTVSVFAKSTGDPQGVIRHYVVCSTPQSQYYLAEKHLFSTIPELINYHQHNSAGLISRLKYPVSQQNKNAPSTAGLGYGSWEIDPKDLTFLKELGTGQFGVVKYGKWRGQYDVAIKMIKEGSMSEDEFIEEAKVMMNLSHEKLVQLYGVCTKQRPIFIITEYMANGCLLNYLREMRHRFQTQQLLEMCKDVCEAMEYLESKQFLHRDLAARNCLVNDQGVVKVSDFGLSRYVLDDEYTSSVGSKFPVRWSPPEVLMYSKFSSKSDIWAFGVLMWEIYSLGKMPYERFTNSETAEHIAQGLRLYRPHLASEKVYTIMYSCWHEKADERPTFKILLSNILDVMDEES
Experimental: as §1

STK32B = STK32B (Homo sapiens, UniProt Q9NY57)
Experimental: as §1

With `CN1C(=O)[C@@H](N2CCc3c(nn(Cc4ccccc4)c3C(N)=O)C2=O)COc2cc(Cl)ccc21` [Compound 10, (S)-2-benzyl-6-(8-chloro-5-methyl-4-oxo-2,3,4,5-tetrahydrobenzo[b][1,4]oxazepin-3-yl)-7-oxo-4,5,6,7-tetrahydro-2H-pyrazolo[3,4-c]pyridine-3-carboxamide] as the compound, how does the receptor occupancy at 1 µM (NEK11) read?
Its receptor occupancy at 1 µM is 10.1%.

What about the receptor occupancy at 1 µM (RIPK1) of the same compound?
Its receptor occupancy at 1 µM is 78.4%.

And the receptor occupancy at 1 µM (RPS6KA6)?
The receptor occupancy at 1 µM was 7.04%.

What about the receptor occupancy at 1 µM (STK3) of the same compound?
Its receptor occupancy at 1 µM is -10.1%.

What about the receptor occupancy at 1 µM (NUAK1) of the same compound?
Its receptor occupancy at 1 µM is -4.45%.

And the receptor occupancy at 1 µM (PRKACB)?
The receptor occupancy at 1 µM was 0.396%.

And the receptor occupancy at 1 µM (PLK3)?
Its receptor occupancy at 1 µM is 2.41%.

What about the receptor occupancy at 1 µM (TBK1) of the same compound?
Its receptor occupancy at 1 µM is 2.77%.

What about the receptor occupancy at 1 µM (SNF1LK2) of the same compound?
The receptor occupancy at 1 µM was 4.84%.

What about the receptor occupancy at 1 µM (ULK3) of the same compound?
Its receptor occupancy at 1 µM is 1.52%.

And the receptor occupancy at 1 µM (RIPK2)?
The receptor occupancy at 1 µM was -1.2%.

And the receptor occupancy at 1 µM (PRKAA2)?
The receptor occupancy at 1 µM was 2.71%.

What about the receptor occupancy at 1 µM (BMP2K) of the same compound?
Its receptor occupancy at 1 µM is -6.67%.

And the receptor occupancy at 1 µM (NEK2)?
The receptor occupancy at 1 µM was -8.89%.

And the receptor occupancy at 1 µM (CSNK1D)?
Its receptor occupancy at 1 µM is 0.69%.

What about the receptor occupancy at 1 µM (TNK2(iso1)) of the same compound?
The receptor occupancy at 1 µM was 4.21%.

And the receptor occupancy at 1 µM (PRKACA)?
The receptor occupancy at 1 µM was -2.16%.

What about the receptor occupancy at 1 µM (PLK2) of the same compound?
The receptor occupancy at 1 µM was 2.74%.

And the receptor occupancy at 1 µM (PHKG1)?
Its receptor occupancy at 1 µM is -0.896%.

And the receptor occupancy at 1 µM (MAP3K9)?
Its receptor occupancy at 1 µM is 8.3%.

What about the receptor occupancy at 1 µM (MAP4K3) of the same compound?
The receptor occupancy at 1 µM was -3.75%.

What about the receptor occupancy at 1 µM (MAPK14) of the same compound?
Its receptor occupancy at 1 µM is 4.38%.

What about the receptor occupancy at 1 µM (FER) of the same compound?
Its receptor occupancy at 1 µM is 15.8%.

What about the receptor occupancy at 1 µM (STK17B) of the same compound?
The receptor occupancy at 1 µM was 8%.

And the receptor occupancy at 1 µM (RON)?
Its receptor occupancy at 1 µM is 0.288%.

What about the receptor occupancy at 1 µM (BTK) of the same compound?
The receptor occupancy at 1 µM was -8.22%.

What about the receptor occupancy at 1 µM (STK32B) of the same compound?
Its receptor occupancy at 1 µM is -4.21%.

Reference: paper PMC12090182, “Repurposing of the RIPK1-Selective Benzo[1,4]oxazepin-4-one Scaffold for the Development of a Type III LIMK1/2 Inhibitor” (ACS Chemical Biology, 2025)
